In paper PMC4444998 (Journal of Natural Products, 2015):
pIC50: −log10 of the molar value.

Assays:
Format in all cases: biochemical
[1] = test system: bovine α-chymotrypsin; experiment: Chymotrypsin inhibition assay (Ala-Ala-Phe-AMC, fluorimetry); conditions: for inhibition of chymotrypsin activity: cyclotides at 25 µM and 75 µM, triplicate
Description: (§1) Inhibitory activity was performed in triplicate in 96-well microtiter plates. Bovine trypsin (10 μL of a 10 ng/μL solution; Roche, Basel, Switzerland) or bovine α-chymotrypsin (10 μL of a 2.5 ng/μL solution; Sigma-Aldrich) was preincubated for 15 min at 37 °C with buffer (125 μL of a 20 mM Tris-HCl solution, pH 8.0) and with 3 μL of the cyclotide solution or ddH2O as negative control. After preincubation, trypsin substrate (Bz-Arg-AMC-HCl, 10 μL of a 3 mM solution prepared in 40% 1,4-dioxane; Bachem, Bubendorf, Switzerland) or chymotrypsin substrate (Ala-Ala-Phe-AMC, 10 μL of a 3 mM solution prepared in 40% 1,4-dioxane; Sigma-Aldrich), respectively, was added, and the reaction was incubated while shaking (90 rpm) for 1 h at 37 °C. The reaction was stopped with sodium acetate (150 μL, 1 M, pH 4), and the formation of AMC was measured by fluorimetry. The excitation and emission wavelengths were 360 ± 40 and 485 ± 20 nm, respectively. Phenylmethane-sulfonylfluoride (PMSF; 3 μL of a 5 mM solution in DMSO) was used as a positive control of inhibition; additional controls with DMSO solution only were also performed. Data were calculated as percentage of inhibition and are presented as mean ± STDEV (of three replicates).

[2] = test system: Bovine trypsin; experiment: Trypsin inhibition assay (Bz-Arg-AMC, fluorimetry); conditions: for inhibition of trypsin protease activity: cyclotides kalata B1 or psysol 2 at 25 µM and 75 µM, respectively, triplicate
Description: as §1

[3] = biological target: T1, human prolyl oligopeptidase (POP) (Homo sapiens, UniProt P48147); experiment: Prolyl oligopeptidase inhibition assay (Z-Gly-Pro-AMC, fluorimetry)
T1 construct: made in house
T1 sequence (P48147 1-710): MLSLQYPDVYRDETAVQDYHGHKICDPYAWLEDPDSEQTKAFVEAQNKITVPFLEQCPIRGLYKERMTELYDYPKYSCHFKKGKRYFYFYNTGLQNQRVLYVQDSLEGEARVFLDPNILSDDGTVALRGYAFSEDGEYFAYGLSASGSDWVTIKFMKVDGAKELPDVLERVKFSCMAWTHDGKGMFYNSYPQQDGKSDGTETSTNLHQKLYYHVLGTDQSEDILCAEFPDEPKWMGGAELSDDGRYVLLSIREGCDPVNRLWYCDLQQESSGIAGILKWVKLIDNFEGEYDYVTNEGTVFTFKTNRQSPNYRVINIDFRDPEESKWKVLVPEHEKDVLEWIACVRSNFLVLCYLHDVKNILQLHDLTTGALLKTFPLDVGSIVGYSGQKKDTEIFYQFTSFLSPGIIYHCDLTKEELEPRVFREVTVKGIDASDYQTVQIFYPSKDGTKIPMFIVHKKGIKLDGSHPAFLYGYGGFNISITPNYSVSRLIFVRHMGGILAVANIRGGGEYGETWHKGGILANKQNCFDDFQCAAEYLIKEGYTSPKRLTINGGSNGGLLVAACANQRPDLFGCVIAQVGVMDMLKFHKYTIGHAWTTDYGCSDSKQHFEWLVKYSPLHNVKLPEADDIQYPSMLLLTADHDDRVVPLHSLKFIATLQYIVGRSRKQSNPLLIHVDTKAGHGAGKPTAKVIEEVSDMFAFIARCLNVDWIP

Compound | inhibition of chymotrypsin activity (positive control) ([1]; 100 µM) | inhibition of trypsin activity (positive control) ([2]; 100 µM) | inhibition of chymotrypsin activity [1] | inhibition of trypsin protease activity [2] | selectivity toward inhibition of POP over trypsin and chymotrypsin ([3]; POP IC50 compared with no inhibition of trypsin/chymotrypsin at 25 and 75 μM) | pIC50 ([3]; POP enzyme inhibition potency IC50, synthetic cyclotide, mean of three replicates)
O=S(=O)(F)Cc1ccccc1 [PMSF, Phenylmethane-sulfonylfluoride] | completel y blocked | able to inhibit |  |  |  | 
CC(C)C[C@@H]1NC(=O)CNC(=O)[C@H](CC(N)=O)NC(=O)[C@H](CCCNC(=N)N)NC(=O)[C@H]([C@@H](C)O)NC(=O)[C@@H]2CSSC[C@@H]3NC(=O)[C@H]([C@@H](C)O)NC(=O)CNC(=O)CNC(=O)[C@H](C(C)C)NC(=O)[C@@H]4CSSC[C@H](NC(=O)[C@H]([C@@H](C)O)NC(=O)[C@H](CSSC[C@H](NC(=O)[C@H](C(C)C)NC(=O)[C@@H]5CCCN5C1=O)C(=O)NCC(=O)N[C@@H](CCC(=O)O)C(=O)N[C@@H]([C@@H](C)O)C(=O)N4)NC(=O)CNC(=O)[C@@H]1CCCN1C(=O)[C@H]([C@@H](C)O)NC(=O)[C@H](CC(N)=O)NC3=O)C(=O)N[C@@H](CO)C(=O)N[C@@H](Cc1c[nH]c3ccccc13)C(=O)N1CCC[C@H]1C(=O)N[C@@H](C(C)C)C(=O)N2 [kalata B1] |  |  | had no effect | not inhibited | at least an order of magnitude more selective | 
CC[C@H](C)[C@@H]1NC(=O)[C@@H]2CCCN2C(=O)[C@H](CC(C)C)NC(=O)CNC(=O)[C@H](CC(N)=O)NC(=O)[C@H](CCCNC(=N)N)NC(=O)[C@H]([C@@H](C)O)NC(=O)[C@@H]2CSSC[C@@H]3NC(=O)[C@H]([C@@H](C)O)NC(=O)CNC(=O)CNC(=O)[C@H](C(C)C)NC(=O)[C@@H]4CSSC[C@H](NC(=O)[C@H]([C@@H](C)O)NC(=O)[C@H](CSSC[C@H](NC1=O)C(=O)NCC(=O)N[C@@H](CCC(=O)O)C(=O)N[C@@H](CO)C(=O)N4)NC(=O)CNC(=O)[C@@H]1CCCN1C(=O)[C@H]([C@@H](C)O)NC(=O)[C@H](CC(N)=O)NC3=O)C(=O)N[C@@H]([C@@H](C)O)C(=O)N[C@@H](Cc1c[nH]c3ccccc13)C(=O)N1CCC[C@H]1C(=O)N[C@@H](C(C)C)C(=O)N2 [psysol 2 (1), psysol 2] |  |  | had no effect | not inhibited |  | 4.56
